Drawing on a melting point compilation (Tetko et al.), this text covers melting point for 113 compounds.

Peptide text beside a SMILES is read from it.

In general, melting point refers to the temperature of the solid-liquid transition. Consider `O=C(/C=C/c1ccc(OCC2CO2)cc1)c1ccccc1` (stereo not drawn), for which the melting point turned out to be 92 °C.

For `O=[N+]([O-])c1cccc(-c2nnc3n2NC(c2ccccc2O)S3)c1` (stereo not drawn), the melting point was 210 °C.

In the case of `NS(=O)(=O)c1cc2c(cc1C(F)(F)F)NCNS2(=O)=O`, the melting point is 272 °C.

Compound `CC(Nc1cc(C)ccn1)=C(C#N)C(=O)c1ccccc1` yielded a melting point of 102 to 103 °C.

Compound `c1ncncn1` had a melting point of 86 °C.

Regarding `Cc1ccc(-c2ccc3c(c2)C=CC(=C2C(=O)c4ccccc4C2=O)N3)cc1`, the melting point lay in the range of 241 to 242 °C.

With `CC(=O)c1cc(OC(F)(F)F)ccc1O`, the melting point came to 30 °C.

In the case of `O=C1c2ccccc2C(=O)C1c1cc(Cl)c([N+](=O)[O-])cc1[N+](=O)[O-]`, the melting point stood at 185 °C.

With `NNc1c2ccccc2nc2ccccc12`, the melting point is 177 °C.

Consider `CCC(C)NC(=O)C(C(F)(F)F)C(F)(F)F` (stereo not drawn), for which the melting point fell in the range of 110 to 113 °C.

`O=C(Nc1ccc(O)cc1)c1ccccc1O` yielded a melting point of 179 °C.

In the case of `COc1ccc2c(c1OC)C(=O)OC2C1c2cc3c(cc2CCN1C)OCO3` (stereo not drawn), the melting point came to 132 °C.

`Cc1nc2cc(C)c(C)cc2o1`: the melting point is 93.5 to 94 °C.

Compound `CCS(=O)CC` yielded a melting point of 14 °C.

For the compound `Brc1cc(Br)c(Oc2c(Br)c(Br)c(Br)c(Br)c2Br)cc1Br`, the melting point is 200 °C.

As for `CSC[C@H](N)C(=O)O`, the melting point was 240 °C.

As to `CC(=O)Nc1ccccc1C(=O)CCl`, the melting point is 112 to 113 °C.

In the case of `CCCC#CCCCCCC`, the melting point is -74.7 °C.

In the case of `NC(CCC(=O)NC(CS)C(=O)NCC(=O)O)C(=O)O` (stereo not drawn), the melting point is 195 °C.

Consider `NC(=O)Cc1ccc(O)cc1`, for which the melting point is 176 to 180 °C.

Consider `CC(C)(N)P(=O)(O)O`, for which the melting point lay within 287 to 290 °C.

`Cc1cc2c(c(C)c1C)CC2=O`: the melting point is 86 °C.

For `N#CC(=NO)c1ccccc1`, the melting point came to 129 °C.

Turning to `CC(C)C1CC(=O)CC(=O)C1`, the melting point was determined as 80 °C.

In the case of `CC1CCC(C)(CNc2ccccc2)C1(C)C` (stereo not drawn), the melting point came to 59 °C.

Regarding `Cc1ccc([Si](C)(C)c2ccccc2CO)cc1`, the melting point stood at 56 °C.

As for `CN(C)CCc1c[nH]c2ccc(O)cc12`, the melting point is 146 °C.

Take `O=C1/C(=C\c2ccc(Cl)cc2)SC(=S)N1CN1CCCCC1`: the melting point came out at 122 °C.

Compound `CCSC(SCC)=C(C#N)c1ccccn1` showed a melting point of 160 to 162 °C.

Compound `O=C(NCCc1ccccn1)c1cc([N+](=O)[O-])cc([N+](=O)[O-])c1` showed a melting point of 120 °C.

In turn, `Cc1cc(C)n(CO)n1` yielded a melting point of 109 °C.

In the case of `N#CC(=C1CCCC1)c1nc2ccccc2s1`, the melting point was found to be 235 °C.

For the compound `CC(COc1ccc(Oc2ccccc2)cc1)Oc1ccccn1` (stereo not drawn), the melting point came out at 49 °C.

`O=C(O)CC(O)(C(F)(F)F)C(F)(F)F` had a melting point of 87 °C.

`O=C(O)C(C(=O)O)c1ccsc1` gave a melting point of 139 °C.

As for `N#CC(C(=O)N1CCOCC1)=C(SCc1ccccc1)SCc1ccccc1`, the melting point worked out at 123 °C.

With `CCCC(=O)c1ccc(Cl)cc1`, the melting point lay in the range of 36 to 39 °C.

For `CC1(O)Cc2cccc(Cl)c21` (stereo not drawn), the melting point was found to be 94 °C.

Consider `FC(F)(F)C1(F)C(F)(F)C(F)(F)C(F)(F)C(F)(F)C1(F)C(F)(F)F` (stereo not drawn), for which the melting point is -56 °C.

The compound `NS(=O)(=O)c1cc(Cl)c(Cl)cc1Cl` registered a melting point of 189 °C.

Turning to `CC(=O)Oc1ccc(C)c(C)c1`, the melting point amounted to 22 °C.

In turn, `C=C1CCC(O)CC1=CC=C1CCCC2(C)C1CCC2C(C)C=CC(C)C(C)C` (stereo not drawn) yielded a melting point of 116 °C.

For `Cn1c(=O)c(C2=NNC(=O)C2=Cc2c[nH]c3ccccc23)c(O)c2ccccc21`, the melting point was found to be 297 °C.

Consider `Cc1ccc(NC(=O)C(O)C(O)C(=O)O)cc1` (single isomer, unassigned; (-)), for which the melting point was 191 to 192 °C.

On to `CCCCCC(=O)OC1(C(C)=O)CCC2C3CCC4=CC(=O)CCC4C3CCC21C` (stereo not drawn), for which the melting point was 124 °C.

`O=C(Nc1ccc(F)cc1)Nc1nnc(-c2ccc(Cl)cc2)o1`: the melting point fell in the range of 268 to 270 °C.

In turn, `O=C(CCl)Nc1ccc(Oc2ccccc2)cc1` displayed a melting point of 104 to 106 °C.

Turning to `Nc1cc(C(=O)O)cc([N+](=O)[O-])c1`, the melting point came to 216 °C.

`C=CC(=O)OCC(CC)CCCC` (stereo not drawn) displayed a melting point of -90 °C.

In turn, `NCc1ccc(-n2cccn2)cc1` registered a melting point of 75 to 78 °C.

On to `CC1=NC(=Cc2cccc3ccccc23)C(=O)O1`, for which the melting point amounted to 244 °C.

Regarding `CC(CCC(=O)O)C1CCC2C3CCC4CC(=O)CCC4(C)C3CC(O)C12C` (stereo not drawn), the melting point is 107 to 109 °C.

`COC(=O)c1cccc(C(=O)OC)n1` had a melting point of 123 °C.

In the case of `CCOc1ccc(-c2ccc(OCC)cc2)cc1`, the melting point was found to be 174 °C.

In turn, `COc1c(F)cc(N)cc1F` returned a melting point of 79 °C.

Regarding `Nc1ccc(C(F)(F)F)cn1`, the melting point came out at 47 °C.

`CC(=O)CC(=O)Nc1ccccc1Cl` displayed a melting point of 105 °C.

`CC(CO)c1ccccc1` (stereo not drawn) returned a melting point of -13 °C.

`O=C(CCc1ccc(O)cc1)c1c(O)cc(O)cc1O` yielded a melting point of 260 to 262 °C.

As for `NC(Cc1ccc(F)cc1F)C(=O)O` (racemic), the melting point is 224 to 226 °C.

`O=[N+]([O-])c1ccc(O)cc1C(F)(F)F`: the melting point turned out to be 76 °C.

In the case of `COC(C)COC(C)CO` (stereo not drawn), the melting point was -83 °C.

In turn, `Cc1c(C(=O)O)cnn1-c1ccc(F)cc1` returned a melting point of 165 to 166 °C.

For `O=Cc1cccc2cc[nH]c12`, the melting point amounted to 88 °C.

On to `NC(=O)C1c2ccccc2CCc2ccccc21`, for which the melting point was determined as 194 °C.

In turn, `c1ccc(C2(N3CCCCC3)CCCCC2)cc1` yielded a melting point of 46.5 °C.

For `COc1c(C(C)(C)C(C)C)c2nc3ccccc3nc2c2ccccc12`, the melting point worked out at 88.6 °C.

For the compound `O=C(OCCO)c1ccccc1O`, the melting point worked out at 37 °C.

In turn, `NC(=O)CCCNC(=C1C=C(F)C=CC1=O)c1ccc(Cl)cc1` had a melting point of 134 °C.

Consider `O=C=NS(=O)(=O)c1ccc(F)cc1`, for which the melting point fell in the range of 32 to 39 °C.

`CCC(N)C(=O)O` (stereo not drawn) yielded a melting point of 304 °C.

For `S=c1[nH]c2ncccc2o1`, the melting point lay within 243 to 246 °C.

As for `O=C1CCCCC1Cl` (stereo not drawn), the melting point is 23 °C.

Turning to `Oc1ccc(C(O)(c2ccccc2)c2ccc(O)c3ccccc23)c2ccccc12`, the melting point stood at 232 °C.

`NC(=O)c1sccc1Cl` showed a melting point of 105 to 107 °C.

In turn, `O=C1OC(=O)c2c(Br)c(Br)c(Br)c(Br)c21` had a melting point of 275 °C.

As for `Oc1c(CN2CCCCC2)ccc2ccccc12`, the melting point is 134 to 136 °C.

`COC(=O)c1ccc(C(F)(F)F)cc1` showed a melting point of 14 °C.

`Nc1c(F)ccc(F)c1Cl` had a melting point of 29 °C.

`CCC(=O)c1ccc(C(F)(F)F)c(F)c1` gave a melting point of 37 °C.

Regarding `Clc1ncccc1-c1ccc(Br)cn1`, the melting point was 132 °C.

`CN1CCCN=C1C=Cc1cccs1` displayed a melting point of 178 °C.

`CC(CSc1ccc(Cl)cc1)C(=O)O` (stereo not drawn) gave a melting point of 63 to 65 °C.

Regarding `CC(=O)N[C@@H](Cc1ccccc1)C(=O)N[C@@H](Cc1cc(I)c(O)c(I)c1)C(=O)O`, the melting point lay within 219 to 221 °C.

Take `CC=CC(C)C(C)C=CC` (stereo not drawn): the melting point was -64.8 °C.

On to `NC(=O)NC12CC3CC(CC(C3)C1)C2`, for which the melting point turned out to be 250 °C.

Take `O=c1on(-c2ccccc2)c(Br)c1-c1ccccc1`: the melting point fell in the range of 165 to 166 °C.

Regarding `NC(CC(=O)O)C1CCCCC1` (stereo not drawn), the melting point lay in the range of 234 to 235 °C.

Compound `O=S(=O)(Cl)c1cc(Br)c(Cl)s1` had a melting point of 63 to 65 °C.

The compound `CCCCCCCS` registered a melting point of -43 °C.

`COC(=O)c1sc(Br)c(Br)c1O` had a melting point of 129 to 131 °C.

Take `COc1cc2c(cc1OC)C(c1ccccc1Cl)N(C(C)=O)CC2` (stereo not drawn): the melting point was 186 to 188 °C.

Take `CCCCCCCCCCCCN1CCCCCC1=O`: the melting point is -7 °C.

In turn, `COC(=O)c1cc(Br)ccc1NC(C)=O` showed a melting point of 134 °C.

Regarding `CCOC(C(=O)c1ccccc1)c1ccccc1` (stereo not drawn), the melting point stood at 62 °C.

Consider `CC(C)c1nsc(N)n1`, for which the melting point fell in the range of 119 to 120 °C.

On to `CCOC(=O)c1c(C)oc(NC(=O)Nc2ccc(F)cc2)c1C(=O)OCC`, for which the melting point fell in the range of 146 to 148 °C.

In the case of `O=S(=O)(Cl)c1cc2ccccc2s1`, the melting point was 75 to 76 °C.

As to `O=Cc1csnn1`, the melting point lay within 85 to 87 °C.

As to `O=C(O)c1cccc(Br)c1F`, the melting point came out at 169 °C.

Compound `C[C@H](N)C(=O)N[C@@H](C)C(=O)O` (H-Ala-Ala-OH) gave a melting point of 286 to 288 °C.

Compound `O=C=Nc1ccc(I)cc1` returned a melting point of 45 °C.

`CC(C)N(C(=O)COc1nnc(C(F)(F)F)s1)c1ccc(F)cc1` registered a melting point of 78 °C.

Regarding `CC(=O)N1CCSC1C(=O)O` (stereo not drawn), the melting point is 114 to 116 °C.

The compound `COc1cccc(C(CCC(=O)O)C(C)(C)C(=O)O)c1` (stereo not drawn) displayed a melting point of 137 °C.

`O=C(O)c1nc(Cl)c(Cl)c(Cl)c1Cl` gave a melting point of 172 °C.

As for `O=C(O)C1CCC(c2ccccc2)CC1C(=O)O` (stereo not drawn), the melting point lay in the range of 185 to 190 °C.

`CCOC(=O)/C(=N\Nc1ccc(Cl)cc1)C(=O)C(F)(F)F` came in with a melting point of 75 to 76 °C.

In turn, `Brc1ccc(N2CCCCC2)cc1` returned a melting point of 75 to 76 °C.

Take `CCCC(O)CCC=CC=CC#CC#CC=CCO` (stereo not drawn): the melting point was 87 °C.

`CC12CCC(O)CC1CCC1C2CC(O)C2(C)C(C3=CC(=O)OC3)CCC12O` (stereo not drawn) had a melting point of 222 °C.

For the compound `CC(C)C(NC(=O)C(C)(C)Br)C(C)C`, the melting point lay within 80 to 82 °C.

On to `O=CC(C=O)c1ccc(C(=O)O)cc1[N+](=O)[O-]`, for which the melting point was 199 to 205 °C.
